{"source": "patent US20030129629A1", "about": "“Methods and compositions for the identification, assessment, prevention, and therapy of human cancers” (Millennium Pharmaceuticals, Inc., priority 2000, published 2003)", "key": {"tumor": {"system": "tumor", "details": "animal models; cited from earlier work"}, "[1]": {"system": "60 cancer cell lines (NCI 60 cancer cell line series)", "details": "cited from earlier work"}, "[2]": {"system": "60 cancer cell lines (NCI 60 cancer cell line series)", "assay": "NCI-DTP in vitro cancer screen, sulforhodamine B (SRB) growth inhibition, 48 hour exposure", "type": "cell-based, human", "procedure,_shortened": "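Potency is given as mean −log{GI50} from dose–response curves, manually binned into Low, Medium or High sensitivity. Sixty NCI-DTP tumour lines were treated 48 h with a duplicate, five-dose, ten-fold dilution series, and growth read by SRB staining of cell mass.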"}}, "note": "Like-named read-outs stand apart in the source and are kept apart here.", "data": [{"smiles": "CC(=O)O[C@@]12CO[C@@H]1C[C@H](O)[C@@]1(C)C(=O)[C@H](O)C3=C(C)[C@@H](OC(=O)[C@H](O)[C@@H](NC(=O)OC(C)(C)C)c4ccccc4)C[C@@](O)([C@@H](OC(=O)c4ccccc4)[C@H]21)C3(C)C", "note": "[Taxotere, docetaxel]", "values": [{"measurement": "anti-tumor activity", "setting": "tumor", "result": "good anti-tumor activity"}]}, {"smiles": "COc1cc([C@@H]2c3cc4c(cc3[C@@H](O[C@@H]3O[C@@H]5CO[C@@H](C)O[C@H]5[C@H](O)[C@H]3O)[C@H]3COC(=O)[C@H]23)OCO4)cc(OC)c1O", "note": "[Etoposide]", "values": [{"measurement": "−Log (GI50)", "setting": "[1]; Melanoma SK-MEL-2 CL10005", "result": 4.5}, {"measurement": "−Log (GI50)", "setting": "[1]; Melanoma SK-MEL-5 CL10007", "result": 5.0}, {"measurement": "−Log (GI50)", "setting": "[1]; Melanoma SK-MEL-28 CL10008", "result": 4.4}, {"measurement": "−Log (GI50)", "setting": "[1]; Melanoma UACC-62 CL10020", "result": 4.9}, {"measurement": "−Log (GI50)", "setting": "[1]; Melanoma UACC-257 CL10021", "result": 4.2}, {"measurement": "−Log (GI50)", "setting": "[1]; NSCLC A549/ATCC CL1004", "result": 5.2}, {"measurement": "−Log (GI50)", "setting": "[1]; NSCLC EKVX CL1008", "result": 4.4}, {"measurement": "−Log (GI50)", "setting": "[1]; NSCLC HOP-62 CL1026", "result": 5.5}, {"measurement": "−Log (GI50)", "setting": "[1]; NSCLC HOP-92 CL1029", "result": 4.8}, {"measurement": "−Log (GI50)", "setting": "[1]; NSCLC NCI-H226 CL1013", "result": 5.2}, {"measurement": "classification of cell line as Low(1), Medium(2), High(3) sensitivity to compound", "setting": "[2]; Breast BT-549 CL5013", "result": 2}, {"measurement": "classification of cell line as Low(1), Medium(2), High(3) sensitivity to compound", "setting": "[2]; Breast HS-578T CL5006", "result": 3}, {"measurement": "classification of cell line as Low(1), Medium(2), High(3) sensitivity to compound", "setting": "[2]; Breast MCF7(I) CL5001", "result": 2}, {"measurement": "classification of cell line as Low(1), Medium(2), High(3) sensitivity to compound", "setting": "[2]; Breast MCF7/ADRr CL5002", "result": 1}, {"measurement": "classification of cell line as Low(1), Medium(2), High(3) sensitivity to compound", "setting": "[2]; Breast MDA-MB-231 CL5005", "result": 2}, {"measurement": "classification of cell line as Low(1), Medium(2), High(3) sensitivity to compound", "setting": "[2]; Breast MDA-MB-435 CL5011", "result": 2}, {"measurement": "classification of cell line as Low(1), Medium(2), High(3) sensitivity to compound", "setting": "[2]; Breast MDA-N CL5012", "result": 3}, {"measurement": "classification of cell line as Low(1), Medium(2), High(3) sensitivity to compound", "setting": "[2]; Breast T-47D CL5014", "result": 3}, {"measurement": "classification of cell line as Low(1), Medium(2), High(3) sensitivity to compound", "setting": "[2]; CNS SF-268 CL12014", "result": 2}, {"measurement": "classification of cell line as Low(1), Medium(2), High(3) sensitivity to compound", "setting": "[2]; CNS SF-295 CL12015", "result": 2}, {"measurement": "classification of cell line as Low(1), Medium(2), High(3) sensitivity to compound", "setting": "[2]; CNS SF-539 CL12016", "result": 2}, {"measurement": "classification of cell line as Low(1), Medium(2), High(3) sensitivity to compound", "setting": "[2]; CNS SNB-19 CL12002", "result": 2}, {"measurement": "classification of cell line as Low(1), Medium(2), High(3) sensitivity to compound", "setting": "[2]; CNS SNB-75(I) CL12005", "result": 2}, {"measurement": "classification of cell line as Low(1), Medium(2), High(3) sensitivity to compound", "setting": "[2]; CNS U251(I) CL12009", "result": 2}, {"measurement": "classification of cell line as Low(1), Medium(2), High(3) sensitivity to compound", "setting": "[2]; Colon COLO-250 CL4010", "result": 1}, {"measurement": "classification of cell line as Low(1), Medium(2), High(3) sensitivity to compound", "setting": "[2]; Colon HCC-2998 CL4002", "result": 2}, {"measurement": "classification of cell line as Low(1), Medium(2), High(3) sensitivity to compound", "setting": "[2]; Colon HCT-15 CL4015", "result": 2}, {"measurement": "classification of cell line as Low(1), Medium(2), High(3) sensitivity to compound", "setting": "[2]; Colon HCT-116 CL4003", "result": 2}, {"measurement": "classification of cell line as Low(1), Medium(2), High(3) sensitivity to compound", "setting": "[2]; Colon HT29(I) CL4001", "result": 1}, {"measurement": "classification of cell line as Low(1), Medium(2), High(3) sensitivity to compound", "setting": "[2]; Colon KM12 CL4017", "result": 2}, {"measurement": "classification of cell line as Low(1), Medium(2), High(3) sensitivity to compound", "setting": "[2]; Colon SW-620 CL4009", "result": 2}, {"measurement": "classification of cell line as Low(1), Medium(2), High(3) sensitivity to compound", "setting": "[2]; Leukemia CCRF-CEM(I) CL7003", "result": 2}, {"measurement": "classification of cell line as Low(1), Medium(2), High(3) sensitivity to compound", "setting": "[2]; Leukemia HL-60(I) CL7008", "result": 2}, {"measurement": "classification of cell line as Low(1), Medium(2), High(3) sensitivity to compound", "setting": "[2]; Leukemia K562(I) CL7005", "result": 2}, {"measurement": "classification of cell line as Low(1), Medium(2), High(3) sensitivity to compound", "setting": "[2]; Leukemia MOLT-4 CL7006", "result": 3}, {"measurement": "classification of cell line as Low(1), Medium(2), High(3) sensitivity to compound", "setting": "[2]; Leukemia RPMI-8226(I) CL7010", "result": 2}, {"measurement": "classification of cell line as Low(1), Medium(2), High(3) sensitivity to compound", "setting": "[2]; Leukemia SR CL7019", "result": 3}, {"measurement": "classification of cell line as Low(1), Medium(2), High(3) sensitivity to compound", "setting": "[2]; Melanoma LOX IMVI CL10001", "result": 2}, {"measurement": "classification of cell line as Low(1), Medium(2), High(3) sensitivity to compound", "setting": "[2]; Melanoma M14 CL10014", "result": 3}, {"measurement": "classification of cell line as Low(1), Medium(2), High(3) sensitivity to compound", "setting": "[2]; Melanoma MALME-3M CL10002", "result": 2}, {"measurement": "classification of cell line as Low(1), Medium(2), High(3) sensitivity to compound", "setting": "[2]; Melanoma SK-MEL-2 CL10005", "result": 2}, {"measurement": "classification of cell line as Low(1), Medium(2), High(3) sensitivity to compound", "setting": "[2]; Melanoma SK-MEL-28 CL10008", "result": 1}, {"measurement": "sensitivity classification Low(1)/Medium(2)/High(3)", "setting": "[2]; NSCLC NCI-H23(I) CL1001", "result": 2}, {"measurement": "sensitivity classification Low(1)/Medium(2)/High(3)", "setting": "[2]; NSCLC NCI-H332M CL1017", "result": 1}, {"measurement": "sensitivity classification Low(1)/Medium(2)/High(3)", "setting": "[2]; NSCLC NCI-H460 CL1021", "result": 3}, {"measurement": "sensitivity classification Low(1)/Medium(2)/High(3)", "setting": "[2]; NSCLC NCI-H522 CL1003", "result": 2}, {"measurement": "sensitivity classification Low(1)/Medium(2)/High(3)", "setting": "[2]; Ovarian IGROV1 CL6010", "result": 1}, {"measurement": "sensitivity classification Low(1)/Medium(2)/High(3)", "setting": "[2]; Ovarian OVCAR-3 CL6001", "result": 1}, {"measurement": "sensitivity classification Low(1)/Medium(2)/High(3)", "setting": "[2]; Ovarian OVCAR-4 CL6002", "result": 1}, {"measurement": "sensitivity classification Low(1)/Medium(2)/High(3)", "setting": "[2]; Ovarian OVCAR-5 CL6003", "result": 1}, {"measurement": "sensitivity classification Low(1)/Medium(2)/High(3)", "setting": "[2]; Ovarian OVCAR-8 CL6005", "result": 2}, {"measurement": "sensitivity classification Low(1)/Medium(2)/High(3)", "setting": "[2]; Ovarian SK-OV-3 CL6011", "result": 2}, {"measurement": "sensitivity classification Low(1)/Medium(2)/High(3)", "setting": "[2]; Prostate DU-145 CL11003", "result": 3}, {"measurement": "sensitivity classification Low(1)/Medium(2)/High(3)", "setting": "[2]; Prostate PC-3(I) CL11001", "result": 3}, {"measurement": "sensitivity classification Low(1)/Medium(2)/High(3)", "setting": "[2]; Renal 786-0 CL9018", "result": 2}, {"measurement": "sensitivity classification Low(1)/Medium(2)/High(3)", "setting": "[2]; Renal A498 CL9013", "result": 2}, {"measurement": "sensitivity classification Low(1)/Medium(2)/High(3)", "setting": "[2]; Renal ACHN CL9023", "result": 3}, {"measurement": "sensitivity classification Low(1)/Medium(2)/High(3)", "setting": "[2]; Renal CAKI-1 CL9015", "result": 2}, {"measurement": "sensitivity classification Low(1)/Medium(2)/High(3)", "setting": "[2]; Renal RXF-393 CL9016", "result": 2}, {"measurement": "sensitivity classification Low(1)/Medium(2)/High(3)", "setting": "[2]; Renal SN12C CL9008", "result": 2}, {"measurement": "sensitivity classification Low(1)/Medium(2)/High(3)", "setting": "[2]; Renal TK10 CL9024", "result": 2}, {"measurement": "sensitivity classification Low(1)/Medium(2)/High(3)", "setting": "[2]; Renal UO-31 CL9004", "result": 1}]}]}
